Assay [1] concerns the target USP1-UAF1 (Homo sapiens, UniProt O94782). In words: Ubiquitin Rhodamine assay of USP1-UAF1 activity. In kind it is biochemical. The protocol: Certain compounds of the disclosure were assessed for USP1-UAF1 activity in a Ubiquitin Rhodamine assay as described in Biology Example 1.
Assay [2] concerns MDA-MB-436. In words: Viability assay, BRCA1 mutant cell line MDA-MB-436. The format is cell-based. As to conditions: BRCA1 mutant MDA-MB-436, read-out: MDA-MB-436 rel IC50. An excerpt:
(§1) Table 1 also indicates IC50 values in a viability assay for a non-isogenic pair of BRCA1 mutant (column 5-MDA-MB-436) and BRCA1 WT (column 6—HCC1954) cell lines. These values indicate the effect of treatment with compound on cell survival.

Assay [3] concerns HCC1954. In words: Viability assay, BRCA1 WT cell line HCC1954. As to conditions: read-out: HCC1954 rel IC50. In kind it is cell-based.
From the text: as §1

Assay [4] deals with monoubiquitinated PCNA. As to the kind of experiment: AlphaLISA assay measuring monoubiquitinated PCNA in MDA-MB-436. The format is cell-based. As to conditions: Homo sapiens, MDA-MB-436, monoubiquitinated PCNA, read-out: Alpha Lisa IC50. An excerpt: Table 1 also indicates IC50 values for exemplary compounds in an AlphaLISA assay measuring monoubiquitinated PCNA in a BRCA1 mutant cell line (MDA-MB-436; column 7).

[5] abbreviates: Homo sapiens, MDA-MB-436, viability.
Where [6] appears, read: Homo sapiens, HCC1954, viability.

Data on 28 compounds can be found in US20240059689A1, “PURINE DERIVATIVES AS ANTICANCER AGENTS” (Tango Therapeutics, Inc., priority 2021, published 2024).

Structures are written as SMILES. Read-outs that look alike come from different tables or passages of the source. Where only a bound is given, the exact number is not on record here.

Sequence of USP1-UAF1 (O94782 whole entry): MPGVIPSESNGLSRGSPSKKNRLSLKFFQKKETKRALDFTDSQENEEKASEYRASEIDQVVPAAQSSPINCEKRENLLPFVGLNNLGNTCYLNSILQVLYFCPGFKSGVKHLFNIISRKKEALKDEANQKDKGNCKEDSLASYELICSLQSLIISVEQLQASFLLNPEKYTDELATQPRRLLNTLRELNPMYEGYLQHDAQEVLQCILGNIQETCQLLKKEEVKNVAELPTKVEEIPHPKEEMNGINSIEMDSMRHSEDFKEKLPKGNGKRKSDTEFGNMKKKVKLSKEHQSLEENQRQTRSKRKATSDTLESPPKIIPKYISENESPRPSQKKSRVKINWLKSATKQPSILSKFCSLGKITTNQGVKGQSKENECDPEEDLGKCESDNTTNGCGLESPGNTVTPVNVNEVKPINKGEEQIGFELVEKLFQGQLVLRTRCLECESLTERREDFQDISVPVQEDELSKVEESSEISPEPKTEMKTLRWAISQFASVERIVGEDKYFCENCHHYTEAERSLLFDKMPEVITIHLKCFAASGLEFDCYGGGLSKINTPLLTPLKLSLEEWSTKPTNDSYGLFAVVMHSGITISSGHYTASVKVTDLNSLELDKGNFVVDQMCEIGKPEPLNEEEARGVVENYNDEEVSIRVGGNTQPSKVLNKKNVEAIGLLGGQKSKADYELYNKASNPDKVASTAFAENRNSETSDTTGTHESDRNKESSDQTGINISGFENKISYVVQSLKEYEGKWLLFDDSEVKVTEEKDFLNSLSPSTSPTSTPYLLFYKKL
Sequence of USP1-UAF1 (Q8TAF3 whole entry partner): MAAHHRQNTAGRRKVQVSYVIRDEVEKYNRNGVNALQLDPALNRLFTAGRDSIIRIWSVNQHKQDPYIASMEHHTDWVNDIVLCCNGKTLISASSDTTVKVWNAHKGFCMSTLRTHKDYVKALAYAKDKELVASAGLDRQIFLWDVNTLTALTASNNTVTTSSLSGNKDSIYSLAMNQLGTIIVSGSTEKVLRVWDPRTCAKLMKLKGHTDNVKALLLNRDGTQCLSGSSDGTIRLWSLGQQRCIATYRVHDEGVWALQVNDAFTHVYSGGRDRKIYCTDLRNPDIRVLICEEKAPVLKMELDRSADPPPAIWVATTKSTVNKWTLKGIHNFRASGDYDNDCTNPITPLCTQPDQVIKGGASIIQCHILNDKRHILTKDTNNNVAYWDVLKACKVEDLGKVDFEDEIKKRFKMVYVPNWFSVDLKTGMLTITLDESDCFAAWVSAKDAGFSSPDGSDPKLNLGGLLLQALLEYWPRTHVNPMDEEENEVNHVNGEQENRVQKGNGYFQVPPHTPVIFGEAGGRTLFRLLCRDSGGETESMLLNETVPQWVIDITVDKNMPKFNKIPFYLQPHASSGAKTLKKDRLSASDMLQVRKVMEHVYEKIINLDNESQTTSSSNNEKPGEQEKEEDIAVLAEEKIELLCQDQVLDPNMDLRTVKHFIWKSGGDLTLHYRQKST

For `Cn1cc(C(F)(F)F)nc1-c1ccc(Cn2c(=N)n(CC(F)(F)F)c3cnc(-c4c(OCF)ncnc4C4CC4)nc32)cc1` [Example T-147, 2-[4-cyclopropyl-6-(fluoromethoxy)pyrimidin-5-yl]-9-[[4-[1-methyl-4-(trifluoromethyl)imidazol-2-yl]phenyl]methyl]-7-(2,2,2-trifluoroethyl)purin-8-imine], the IC50 was 30 to 100 nM in assay [1], 100 to 250 nM in assay [2] (setting [5]), at least 10000 nM in assay [3] (setting [6]) and under 100 nM in assay [4].

In the case of `Cc1cnn(C(C)C)c1-c1ncc2c(n1)n(Cc1ccc(-c3nc(C(F)(F)F)cn3C)cc1)c(=N)n2CC(F)(F)F` [Example T-130, 2-(2-isopropyl-4-methyl-pyrazol-3-yl)-9-[[4-[1-methyl-4-(trifluoromethyl)imidazol-2-yl]phenyl]methyl]-7-(2,2,2-trifluoroethyl)purin-8-imine], the half-maximal inhibitory concentration (IC50) was under 30 nM in assay [1], under 100 nM in assay [2] (setting [5]), at least 10000 nM in assay [3] (setting [6]) and under 100 nM in assay [4].

Regarding `Cn1cc(C(F)(F)F)nc1-c1ccc(Cn2c(=N)n(C)c3cnc(-c4ccccc4OC(F)F)nc32)cc1` [Example T-021, 2-[2-(difluoromethoxy)phenyl]-7-methyl-9-[[4-[1-methyl-4-(trifluoromethyl)imidazol-2-yl]phenyl]methyl]purin-8-imine], the half-maximal inhibitory concentration (IC50) is 30 to 100 nM in assay [1], 100 to 250 nM in assay [2] (setting [5]), at least 10000 nM in assay [3] (setting [6]) and under 100 nM in assay [4].

In the case of `CC(C)c1ccccc1-c1ncc2c(n1)n(Cc1ccc(-c3nc(Cl)cn3C)cc1)c(=N)n2C` [Example A-6, 9-(4-(4-chloro-1-methyl-1H-imidazol-2-yl)benzyl)-2-(2-isopropylphenyl)-7-methyl-7,9-dihydro-8H-purin-8-imine], the IC50 in assay [1] was under 30 nM; in assay [2] (setting [5]), under 100 nM; in assay [3] (setting [6]) it was at least 10000 nM; in assay [4], under 100 nM.

As for `CCOc1cc(C(F)(F)F)nn1-c1ccc(Cn2c(=N)n(C)c3cnc(-c4c(OC)ncnc4C4CC4)nc32)cc1` [Example T-094], the IC50 is under 30 nM in assay [1], under 100 nM in assay [2] (setting [5]), at least 10000 nM in assay [3] (setting [6]) and under 100 nM in assay [4].

On to `COc1ncnc(C2CC2)c1-c1ncc2c(n1)n(Cc1ccc(-c3nc(C(F)(F)F)cn3C)cc1)c(=N)n2CC(F)F` [Example T-123, 2-(4-cyclopropyl-6-methoxy-pyrimidin-5-yl)-7-(2,2-difluoroethyl)-9-[[4-[1-methyl-4-(trifluoromethyl)imidazol-2-yl]phenyl]methyl]purin-8-imine], for which the IC50 was 30 to 100 nM in assay [1], under 100 nM in assay [2] (setting [5]), at least 10000 nM in assay [3] (setting [6]) and under 100 nM in assay [4].

As for `CC(C)c1ccccc1-c1ncc2c(n1)n(Cc1ccc(-c3nc(C(F)(F)F)cs3)cc1)c(=N)n2C` [Example A-25, 2-(2-isopropylphenyl)-7-methyl-9-(4-(4-(trifluoromethyl)thiazol-2-yl)benzyl)-7,9-dihydro-8H-purin-8-imine], the IC50 fell in the range of 30 to 100 nM in assay [1], 250 to 10000 nM in assay [2] (setting [5]), 250 to 10000 nM in assay [3] (setting [6]) and 250 to 10000 nM in assay [4].

Consider `COc1nccc(C#N)c1-c1ncc2c(n1)n(Cc1ccc(-c3nc(C(F)(F)F)cn3C)cc1)c(=N)n2C` [Example T-008], for which the concentration for half-maximal inhibition (IC50) in assay [1] is 30 to 100 nM; in assay [2] (setting [5]), 100 to 250 nM; in assay [3] (setting [6]) it was at least 10000 nM; in assay [4] it was 100 to 250 nM.

Regarding `CCOc1cc(C(F)(F)F)nn1-c1ccc(Cn2c(=N)n(C)c3cnc(-c4ccccc4C(F)(F)F)nc32)cn1` [Example T-091], the IC50 is 250 to 10000 nM in assay [2] (setting [5]), at least 10000 nM in assay [3] (setting [6]) and 250 to 10000 nM in assay [4].

Regarding `CC(C)c1ccccc1-c1ncc2c(n1)n(Cc1ccc(-c3nc(C(F)(F)F)cn3C)c(F)c1)c(=N)n2C` [Example A-33, 9-(3-fluoro-4-(1-methyl-4-(trifluoromethyl)-1H-imidazol-2-yl)benzyl)-2-(2-isopropylphenyl)-7-methyl-7,9-dihydro-8H-purin-8-imine], the half-maximal inhibitory concentration (IC50) in assay [1] is under 30 nM; in assay [4], under 100 nM.

For `CC(C)c1ccccc1-c1ncc2c(n1)n(Cc1cc(F)c(-c3nc(C(F)(F)F)cn3C)c(F)c1)c(=N)n2C` [Example A-43, 9-(3,5-difluoro-4-(1-methyl-4-(trifluoromethyl)-1H-imidazol-2-yl)benzyl)-2-(2-isopropylphenyl)-7-methyl-7,9-dihydro-8H-purin-8-imine], the IC50 in assay [1] was in the range of 30 to 100 nM; in assay [4], 250 to 10000 nM.

On to `Cn1cc(C(F)(F)F)nc1-c1ccc(Cn2c(=N)n(C)c3cnc(-c4ccccc4C(F)(F)F)nc32)cc1` [Example T-045], for which the IC50 in assay [1] was under 30 nM; in assay [2] (setting [5]), under 100 nM; in assay [4], 100 to 250 nM.

For `COc1ccn(-c2ccc(Cn3c(=N)n(C)c4cnc(-c5ccccc5C(C)C)nc43)cc2C)n1` [Example T-056], the IC50 in assay [1] was in the range of 100 to 10000 nM; in assay [2] (setting [5]), 250 to 10000 nM; in assay [3] (setting [6]), 250 to 10000 nM.

On to `COc1ncnc(C2CC2)c1-c1ncc2c(n1)n(C1(c3ccc(-c4nc(C(F)(F)F)cn4C)cc3)CC1)c(=N)n2C` [Example T-086], for which the concentration for half-maximal inhibition (IC50) is 100 to 250 nM in assay [2] (setting [5]), at least 10000 nM in assay [3] (setting [6]) and 100 to 250 nM in assay [4].

As to `COc1nccc(C)c1-c1ncc2c(n1)n(Cc1ccc(-c3nc(C(F)(F)F)cn3C)cc1)c(=N)n2C` [Example T-028], the IC50 in assay [1] was 100 to 10000 nM; in assay [2] (setting [5]), 250 to 10000 nM; in assay [3] (setting [6]), at least 10000 nM.

As for `COc1ncnc(C2CC2)c1-c1ncc2c(n1)n(Cc1cc(-c3nc(C(F)(F)F)cn3C)cs1)c(=N)n2C` [Example T-014], the IC50 in assay [1] is 100 to 10000 nM; in assay [2] (setting [5]), 250 to 10000 nM; in assay [3] (setting [6]) it was at least 10000 nM.

Consider `Cn1cc(C(F)(F)F)nc1-c1ccc(Cn2c(=N)n(C)c3cnc(-c4c(C(F)(F)F)nn(C)c4C#N)nc32)cc1` [Example T-072], for which the 50% inhibitory concentration (IC50) fell in the range of 100 to 10000 nM in assay [1], 250 to 10000 nM in assay [2] (setting [5]) and 250 to 10000 nM in assay [3] (setting [6]).

For `Cn1cc(C(F)(F)F)nc1-c1ccc(Cn2c(=N)n(C)c3cnc(-c4c(C(F)(F)F)cnn4C)nc32)cc1` [Example T-010], the figures for the IC50 in assay [1], in assay [2] (setting [5]) and in assay [4] were 30 to 100 nM, 250 to 10000 nM and 100 to 250 nM, respectively.

For `Cc1noc(C)c1-c1ncc2c(n1)n(Cc1ccc(-c3nc(C(F)(F)F)cn3C)cc1)c(=N)n2C` [Example T-062], the IC50 in assay [1] is 100 to 10000 nM; in assay [2] (setting [5]) it was 250 to 10000 nM; in assay [3] (setting [6]), at least 10000 nM.

In the case of `Cn1cc(C(F)(F)F)nc1-c1ccc(Cn2c(=N)n(C)c3cnc(-c4c(C#N)cnn4C)nc32)cc1` [Example T-022], the IC50 was 100 to 10000 nM in assay [1], 250 to 10000 nM in assay [2] (setting [5]) and at least 10000 nM in assay [3] (setting [6]).

For the compound `COc1ncccc1-c1ncc2c(n1)n(C1(c3ccc(-c4nc(C(F)(F)F)cn4C)cc3)CC1)c(=N)n2C` [Example T-043], the IC50 in assay [1] was 100 to 10000 nM; in assay [2] (setting [5]), 250 to 10000 nM; in assay [3] (setting [6]) it was at least 10000 nM.

Consider `Cn1cc(C(F)(F)F)nc1-c1ccc(Cn2c(=N)n(C)c3cnc(-c4cccnc4C#N)nc32)cc1` [Example T-050], for which the IC50 is 100 to 10000 nM in assay [1], at least 10000 nM in assay [2] (setting [5]) and at least 10000 nM in assay [3] (setting [6]).

Regarding `CC(C)c1ccccc1-c1ncc2c(n1)n(Cc1ccc(-c3nccn3C)cc1)c(=N)n2C` [Example A-2, 2-(2-isopropylphenyl)-7-methyl-9-(4-(1-methyl-1H-imidazol-2-yl)benzyl)-7H-purin-8(9H)-imine], the half-maximal inhibitory concentration (IC50) in assay [1] was 100 to 10000 nM; in assay [2] (setting [5]) it was 250 to 10000 nM; in assay [3] (setting [6]) it was at least 10000 nM.

Take `CC(C)c1ccccc1-c1ncc2c(n1)n(CC1CCC(c3nc(C(F)(F)F)cn3C)CC1)c(=N)n2C` (stereo not drawn) [Example T-006]: the IC50 in assay [1] is 100 to 10000 nM; in assay [2] (setting [5]), 250 to 10000 nM; in assay [3] (setting [6]) it was 250 to 10000 nM.

Regarding `Cn1cc(C(F)(F)F)nc1-c1ccc(Cn2c(=N)n(C)c3cnc(-c4cccnc4C(F)(F)F)nc32)cc1` [Example T-025], the IC50 in assay [1] is 100 to 10000 nM; in assay [2] (setting [5]), 250 to 10000 nM; in assay [3] (setting [6]) it was at least 10000 nM.

On to `CC(C)c1ccccc1-c1ncc2c(n1)n(C(C)C1CCN(c3nc(Cl)cn3C)CC1)c(=N)n2C` (single isomer, unassigned) [Example A-26d, 9-(1-(1-(4-chloro-1-methyl-1H-imidazol-2-yl)piperidin-4-yl)ethyl)-2-(2-isopropylphenyl)-7-methyl-7,9-dihydro-8H-purin-8-imine], for which the IC50 is 100 to 10000 nM in assay [1], 250 to 10000 nM in assay [2] (viability) and at least 10000 nM in assay [3] (viability).

For `CC(C)c1ccccc1-c1ncc2c(n1)n(Cc1ccc(-c3cc(Cl)cn3C)cc1)c(=N)n2C` [Example A-7, 9-(4-(4-chloro-1-methyl-1H-pyrrol-2-yl)benzyl)-2-(2-isopropylphenyl)-7-methyl-7,9-dihydro-8H-purin-8-imine], the figures for the 50% inhibitory concentration (IC50) in assay [1], in assay [2] (setting [5]) and in assay [3] (setting [6]) were 100 to 10000 nM, 250 to 10000 nM and 250 to 10000 nM, respectively.

In the case of `COc1ncnc(C2CC2)c1-c1ncc2c(n1)n(Cc1ccc(-c3nc(C(F)(F)F)cn3C)cc1O)c(=N)n2C` [Example T-133, 2-[[2-(4-cyclopropyl-6-methoxy-pyrimidin-5-yl)-8-imino-7-methyl-purin-9-yl]methyl]-5-[1-methyl-4-(trifluoromethyl)imidazol-2-yl]phenol], the results for the IC50 in assay [1], in assay [2] (setting [5]) and in assay [3] (setting [6]) were 30 to 100 nM, under 100 nM and at least 10000 nM, respectively.

The IC50 is the concentration needed to halve the response being measured.
